Columns and labels:
[1] = tested on: glioblastoma line U87MG cells;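 also: U87MG cells seeded at 2000 per well, exposed 72 h, viability read by CellTiter-Glo luminescence, inhibition expressed relative to vehicle-treated wells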
[2] = tested on: gastric cancer line MKN45 cells;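 also: MKN45 cell viability read as CellTiter-Glo luminescence after 72 h culture at 37 °C under 5% CO2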
Protocol: (§1) To measure the cell inhibition effect of compounds and synergy effect of test articles on ten (10) cell lines using standard CTG assay.
(§2) 7) Using complete cell medium, adjust the volume of the suspension to achieve a cell concentration.
(§3) A549, T47D, SK-OV-3, MKN45, SK-Hep-1, HT-29, Capan-1, 786-O and LNCaP cell line, for compounds and vehicle groups, the seeding density of cell lines is 3000 cells/80 µL per well. For blank groups, add 100 µL medium. For PBS groups, add 100 µL PBS.
(§4) 8) Incubate the U87MG, A549, T47D, SK-OV-3, MKN45, SK-Hep-1, HT-29, Capan-1, 786-O and LNCaP cells overnight at 37° C./5% CO2.
(§5) Solid compound of cis-platinum was solubilized in PBS to a stock solution of 3.333 mM.
(§6) Final volume is 100 µL per well at this point.
(§7) 5) Incubate the plates at 37° C./5% CO2 for 72 hours.
(§8) 1) Incubate the plates at room temperature and away from light for 30 minutes.
(§9) 3) Add 100 µL /well of CellTiter-Glo® Reagent in each well. Avoid light.
(§10) 4) Mix contents for 2 minutes on an orbital shaker.
(§11) 5) Incubate plate at room temperature for 10 minutes to stabilize the luminescent signal.
6) Read plates in Envision.

[3] = tested on: ovarian cancer line SK-OV3 cells; assay: CTG (CellTiter-Glo) cell viability assay, 6×6 combo matrix, 72 h, SK-OV-3; conditions: for Relatively Cell inhibition of vehicle control(%): SK-OV-3;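 as to all read-outs here: luminescent signal read after CellTiter-Glo addition, cells exposed to compounds for 72 h at 37 °C under 5% CO2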
[4] = tested on: lung adenocarcinoma line A549 cells;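 also: luminescent ATP readout with CellTiter-Glo after compound exposure, used to assess growth inhibition and combination synergy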
Protocol: as §1, §2, §3, §4, §5, §6, §7, §8, §9, §10, §11
6) Read plates in Envision.

SMILES: COc1cccc2c1C(=O)c1c(O)c3c(c(O)c1C2=O)C[C@@](O)(C(=O)CO)C[C@@H]3O[C@H]1C[C@H](N)[C@H](O)[C@H](C)O1 [doxorubicin]
- inhibition [1]: 27.5%

SMILES: CC[C@@]1(O)C(=O)OCc2c1cc1n(c2=O)Cc2cc3c(CN(C)C)c(O)ccc3nc2-1 [topotecan]
- inhibition [2]: 14.9%
- inhibition at 1 µM ([3]; Homo sapiens, SK-OV-3, read-out: inhibition rate): 93.9%
- Relatively Cell inhibition of vehicle control(%) ([3]; Top 16 nM only (myricetin matrix)): 21.67%
- Relatively Cell inhibition of vehicle control(%) ([3]; Top 80 nM only (LB-1 matrix)): 68.74%
- Relatively Cell inhibition of vehicle control(%) ([3]; Top 80 nM only (myricetin matrix)): 67.77%
- Relatively Cell inhibition of vehicle control(%) ([3]; Top 400 nM only (LB-1 matrix)): 83.70%
- Relatively Cell inhibition of vehicle control(%) ([3]; Top 400 nM only (myricetin matrix)): 82.50%
- Relatively Cell inhibition of vehicle control(%) ([3]; Top 2000 nM only (LB-1 matrix)): 90.55%
- Relatively Cell inhibition of vehicle control(%) ([3]; Top 2000 nM only (myricetin matrix)): 90.97%
- Relatively Cell inhibition of vehicle control(%) ([3]; Top 10000 nM only (myricetin matrix)): 94.18%

SMILES: CC(=O)O[C@H]1C(=O)[C@@]2(C)[C@H]([C@H](OC(=O)c3ccccc3)[C@]3(O)C[C@H](OC(=O)[C@H](O)[C@@H](NC(=O)c4ccccc4)c4ccccc4)C(C)=C1C3(C)C)[C@]1(OC(C)=O)CO[C@@H]1C[C@@H]2O [taxol, paclitaxel]
- inhibition [1]: 5.92%
- inhibition [2]: 35.1%
- inhibition [4]: 13.7%
- Relatively Cell inhibition of vehicle control(%) ([3]; Tax 8 nM only (LB-1 matrix)): 41.59%
- Relatively Cell inhibition of vehicle control(%) ([3]; Tax 8 nM only (myricetin matrix)): 39.88%
- Relatively Cell inhibition of vehicle control(%) ([3]; Tax 40 nM only (LB-1 matrix)): 54.31%
- Relatively Cell inhibition of vehicle control(%) ([3]; Tax 40 nM only (myricetin matrix)): 52.55%
- Relatively Cell inhibition of vehicle control(%) ([3]; Tax 200 nM only (LB-1 matrix)): 71.38%
- Relatively Cell inhibition of vehicle control(%) ([3]; Tax 200 nM only (myricetin matrix)): 68.68%
- Relatively Cell inhibition of vehicle control(%) ([3]; Tax 1000 nM only (LB-1 matrix)): 76.39%
- Relatively Cell inhibition of vehicle control(%) ([3]; Tax 1000 nM only (myricetin matrix)): 73.38%

SMILES: O=c1c(O)c(-c2cc(O)c(O)c(O)c2)oc2cc(O)cc(O)c12 [myricetin]
- Relatively Cell inhibition of vehicle control(%) ([3]; Myr 0.8 µM only (cisplatin matrix)): 2.08%
- Relatively Cell inhibition of vehicle control(%) ([3]; Myr 0.8 µM only (doxorubicin matrix)): 0.36%
- Relatively Cell inhibition of vehicle control(%) ([3]; Myr 0.8 µM only (taxol matrix)): 0.71%
- Relatively Cell inhibition of vehicle control(%) ([3]; Myr 0.8 µM only (topotecan matrix)): 4.27%
- Relatively Cell inhibition of vehicle control(%) ([3]; Myr 4 µM only (cisplatin matrix)): 2.94%
- Relatively Cell inhibition of vehicle control(%) ([3]; Myr 4 µM only (doxorubicin matrix)): 1.70%
- Relatively Cell inhibition of vehicle control(%) ([3]; Myr 4 µM only (taxol matrix)): 0.87%
- Relatively Cell inhibition of vehicle control(%) ([3]; Myr 4 µM only (topotecan matrix)): 3.31%
- Relatively Cell inhibition of vehicle control(%) ([3]; Myr 20 µM only (cisplatin matrix)): 9.41%
- Relatively Cell inhibition of vehicle control(%) ([3]; Myr 20 µM only (doxorubicin matrix)): 1.89%
- Relatively Cell inhibition of vehicle control(%) ([3]; Myr 20 µM only (taxol matrix)): 7.54%
- Relatively Cell inhibition of vehicle control(%) ([3]; Myr 20 µM only (topotecan matrix)): 0.29%
- Relatively Cell inhibition of vehicle control(%) ([3]; Myr 100 µM only (cisplatin matrix)): 89.47%
- Relatively Cell inhibition of vehicle control(%) ([3]; Myr 100 µM only (doxorubicin matrix)): 91.33%
- Relatively Cell inhibition of vehicle control(%) ([3]; Myr 100 µM only (taxol matrix)): 87.91%
- Relatively Cell inhibition of vehicle control(%) ([3]; Myr 100 µM only (topotecan matrix)): 87.18%
